This note sets out measurements from EP0312000B1, “Aminomethyl oxooxazolidinyl aroylbenzene derivatives useful as antibacterial agents” (THE DU PONT MERCK PHARMACEUTICAL COMPANY, priority 1987, dated 1989).

Values after ≈ are worked out from the molar mass of the structure shown. Where two headings read alike, the source gives them in different places. Some results are limits rather than exact numbers.

Test [1] concerns Staphylococcus aureus. Briefly: In vitro broth microdilution minimal inhibitory concentration (MIC), Mueller-Hinton broth. The following applies: 24-hour MIC, standard microdilution method, read-out: Minimum Inhibitory Concentration Staphylococcus aureus. Type of test: cell-based. The text has this: (§1) A standard microdilution method (National Committee for Clinical Standards. Tentative standard M7-T. Standard methods for dilution antimicrobial susceptibility tests for bacteria that grow aerobically. National Committee for Clinical Laboratory Standards, Villanova, PA. 1982) with Mueller-Hinton broth is used to determine the 24-hour minimal inhibitory concentrations (MIC's) for test strains of Staphylococcus aureus and Escherichia coli.
On the technique in general: Broth dilution looks for growth in wells or tubes with falling amounts of substance.

For test [2], the system named is Escherichia coli. Described as above. Type of test: cell-based. The following applies: 24-hour MIC, standard microdilution method, read-out: Minimum Inhibitory Concentration Escherichia coli.
Excerpt: as §1

Test [3] deals with Staphylococcus Aureus. Put plainly: In vivo activity in an acute lethal mouse infection model. The following applies: 168 h, mice infected intraperitoneally with S. aureus, dosed at one hour and four hours post-infection, survivors on seventh day. The procedure:
The in vivo potency of these compounds is exemplified by the data summarized in Table V. Determinations of in vivo efficacy are performed by inoculating mice intraperitoneally with cultures of the infecting organism diluted to produce 100% mortality in control animals within twenty-four hours. The culture of S. aureus used to infect the animals was diluted to the required bacterial density using 5% aqueous hog gastric mucin. The compounds are dissolved or suspended in 0.25% aqueous Methocel® (Methocel®: Hydroxypropyl Methylcellulose, E15 Premium, Dow Chemical Company) for oral administration or sterile distilled water containing 5% dimethylsulfoxide (Fisher Scientific Company, Fairlawn, NJ) for subcutaneous administration. The mice are dosed at one hour and at four hours post-infection. Mortality is recorded daily until test termination seven days post infection. The number of survivors in each treatment group on the seventh day after infection is used in the calculation of the ED₅₀, the dose of compound that protects 50% of the mice (Litchfield, J. T. and Wildoxon. A simplified method for evaluating dose-effect experiments. J. Pharmacol Exp. Ther., 96:99-113, 1949).

[4] abbreviates: oral in 0.25% aqueous Methocel, read-out: ED₅₀ Oral Administration.
Setting [5] is: sc, subcutaneous in sterile distilled water containing 5% dimethylsulfoxide, read-out: ED₅₀ Subcutaneous Administration.

`CC(=O)NC[C@H]1CN(c2ccc(C(=O)c3cccnc3)cc2)C(=O)O1` [Example 15]: the results for the MIC in test [1] and in test [2] were 8 µg/mL (≈ 23.6 µM) and more than 128 µg/mL, respectively. Besides, the values for the ED50 in test [3] (setting [4]) and in test [3] (setting [5]) were more than 90 mg/kg and 59 mg/kg, respectively.

As to `CC(=O)NC[C@H]1CN(c2ccc(C(=O)c3ccc(S(C)(=O)=O)cc3)cc2)C(=O)O1` [Example 11], the figures for the MIC in test [1] and in test [2] were 4 µg/mL (≈ 9.6 µM) and more than 128 µg/mL, respectively. Also, the ED50 in test [3] (setting [4]) and in test [3] (setting [5]) was more than 90 mg/kg each time.

For `COc1ccc(C(=O)c2ccc(N3C[C@H](CNC(C)=O)OC3=O)cc2)cc1` [Example 3], the MIC was 4 µg/mL (≈ 10.9 µM) in test [1] and more than 128 µg/mL in test [2]. Besides, the ED50 in test [3] (setting [4]) was 41 mg/kg; in test [3] (setting [5]), 15 mg/kg.

`CC(=O)NC[C@H]1CN(c2ccc(C(=O)c3ccc([N+](=O)[O-])cc3)cc2)C(=O)O1` [Example 9, (ℓ)-N-[3-[4-(4-nitrobenzoyl)phenyl]-2-oxooxazolidin-5-ylmethyl]acetamide]: the MIC in test [1] is 1 µg/mL (≈ 2.61 µM); in test [2] it was more than 128 µg/mL. The ED50 in test [3] (setting [4]) and in test [3] (setting [5]) was more than 90 mg/kg each time.

Regarding `CC(=O)NC[C@H]1CN(c2ccc(C(=O)c3ccccc3)cc2)C(=O)O1` [Example 2], the MIC in test [1] is 4 µg/mL (≈ 11.8 µM); in test [2], more than 128 µg/mL. The ED50 in test [3] (setting [4]) came out at 47 mg/kg; in test [3] (setting [5]), 60 mg/kg.

For `CC(=O)NC[C@H]1CN(c2ccc(C(O)c3ccccc3)cc2)C(=O)O1` (stereo partly drawn) [Example 20], the MIC in test [1] is 32 µg/mL (≈ 94 µM); in test [2], more than 128 µg/mL. Moreover, the ED50 in test [3] (setting [4]) is 65 mg/kg; in test [3] (setting [5]), 52 mg/kg.

For `CSc1ccc(C(=O)c2ccc(N3C[C@H](CNC(C)=O)OC3=O)cc2)cc1` [Example 8], the MIC in test [1] was 4 µg/mL (≈ 10.4 µM); in test [2], more than 128 µg/mL. The ED50 in test [3] (setting [4]) and in test [3] (setting [5]) was more than 90 mg/kg each time.

With `CC(=O)NC[C@H]1CN(c2ccc(C(=O)c3ccc(F)cc3)cc2)C(=O)O1` [Example 1, (ℓ)-N-[3-[4-(4-fluorobenzoyl)-phenyl]-2-oxooxazolidin-5-ylmethyl]acetamide], the MIC was 4 µg/mL (≈ 11.2 µM) in test [1] and more than 128 µg/mL in test [2]. For the same compound, the ED50 in test [3] (setting [4]) worked out at 40 mg/kg; in test [3] (setting [5]), 20 mg/kg.

As to `CC(=O)NC[C@H]1CN(c2ccc(C(=O)c3ccc(F)cc3F)cc2)C(=O)O1` [Example 6, (ℓ)-N-[3-[4-(2,4-difluorobenzoyl)phenyl]-2-oxooxazolidin-5-ylmethyl]acetamide], the MIC was 1 µg/mL (≈ 2.67 µM) in test [1] and more than 128 µg/mL in test [2]. For the same compound, the ED50 in test [3] (setting [4]) was 30 mg/kg; in test [3] (setting [5]) it was 26 mg/kg.

As for `COc1cc(Cl)ccc1C(=O)c1ccc(N2C[C@H](CNC(C)=O)OC2=O)cc1` [Example 7], the MIC in test [1] was 32 µg/mL (≈ 79.4 µM); in test [2], more than 128 µg/mL. Besides, the ED50 in test [3] (setting [4]) and in test [3] (setting [5]) was more than 120 mg/kg each time.

With `CC(=O)NC[C@H]1CN(c2ccc(C(=O)c3ccc([S+](C)[O-])cc3)cc2)C(=O)O1` (stereo partly drawn) [Example 10], the MIC is 16 µg/mL (≈ 40 µM) in test [1] and more than 128 µg/mL in test [2]. Moreover, the ED50 in test [3] (setting [4]) and in test [3] (setting [5]) was more than 90 mg/kg in each case.

As to `CC(=O)NC[C@H]1CN(c2ccc(C(=O)c3cccc(F)c3)cc2)C(=O)O1` [Example 5], the MIC in test [1] is 8 µg/mL (≈ 22.4 µM); in test [2], more than 128 µg/mL. Further, the ED50 in test [3] (setting [4]) came out at 42 mg/kg; in test [3] (setting [5]), 25 mg/kg.
